Test results reported in patent publication US10457710B2, “Antimicrobial peptides, their variants and uses” (priority 2015, dated 2019).
Where a SMILES comes first, the peptide text is derived from it. [ ]: non-standard residue; d: D form.

Tests used:
S. aureus RN4220 = type: cell-based; settings: antibiotic sensitive strain S. aureus RN4220
Protocol: (§1) Minimum inhibition concetrations (MICs) were determined against Escherichia coli (ATCC 25922), Staphylococcus aureus (ATCC 25923), Klebsiella pneumoniae (ATCC 10031) and Pseudomonas aeruginosa (ATCC 27853). Also clinical strains of E. coli, K. pneumoniae, E. cloacae, P. aeruginosa, Serratia marcescens, Proteus mirabilis, S. pneumoniae, Acinetobacter baumannii, A. johnsonii and S. aureus were used for MICs assays. Additionally, clinical strains of yeast including Candida albicans, C. glabrata, C. parapsilosis and C. quillermondiae were used. The susceptibility of these microorganisms to Chain peptides were determined using micro broth dilution assay. Colonies of the respective microorganism from Muller Hinton (MH) agar plates incubated overnight were suspended in MH broth media and final concentration of microorganism was adjusted to 5.0×10^5 cfu/ml. An aliquot of 10 μl of each Chain peptide, or gentamicin, tetracycline as reference antibiotics were added in differing concentrations along with 90 μl of bacterial suspension to 96 well polypropylene plates and incubated at 37° C. for 20 to 24 hours. Concentrations of Chain peptides and reference antibiotics ranged from 0.125 to 128 μg/ml and the MICs were recorded as the lowest concentration with no visual growth of bacteria. Similarly, antifungal MICs were tested in Potato dextrose broth.
(§2) Peptides Chain 104, Chain 105, Chain 201, Chain 308, Chain 310 were tested against antibiotic-sensitive strains of S. aureus RN4220 and methicillin resistant strains of S. aureus COL (MRSA). Chain peptides comprising of either L- or D-form amino acids were tested against these bacteria, and the D-form peptides were found have better activity compared to L-form (Table 6). Synergistic activity of chain peptides along with Ertapenem (4 μg/ml) was tested to know whether it will influence the activity against MRSA strains. […] Chain 310 has the best antibacterial activity against the MRSA strains with a MIC of 0.06 & 0.03 μg/ml along with Ertapenem (4 μg/ml) for both forms of L and D-peptides (Table 6).

MRSA strains = assay: MIC, synergistic activity with Ertapenem (4 μg/ml); type: cell-based, S. aureus; settings: S. aureus COL with 4 μg/ml Ertapenem (synergistic activity)
Protocol: as §2

[1] = system: clinical strains of E. cloacae; assay: MIC, microdilution, clinical strains; type: cell-based; settings: 0.02% BSA, 0.2% acetic acid
Protocol: as §1
(§3) Clinical strains of yeasts including Candida albicans, C. glabrata, C. parapsilosis and C. quillermondiae were also tested with the 12 Chain peptides. The minimum inhibitory concentration (MICs) varied between these peptides and are presented in Tables 4a, 4b, 4c and 5a, 5b, 5c. Peptides Chain 105, 201 and 308 are broad spectrum antimicrobials with MICs between 0.5-32 μg/ml against all the bacteria and yeasts tested, except Serratia marcescens and Proteus mirabilis, against which the MICs were between 64-128 μg/ml. Peptide Chain 306 has narrow spectrum activity against E. coli at 1 μg/ml and for the rest of the bacterial strains at >32 μg/ml (FIG. 10c).

[2] = system: clinical strains of E. coli; assay: MIC, microdilution, clinical strains; type: cell-based; settings: microdilution, Muller Hinton broth-cation adjusted, 0.02% BSA, 0.2% acetic acid
Protocol: as §1, §3

[3] = system: clinical strains of K. pneumoniae; assay: MIC, microdilution, clinical strains; type: cell-based; settings: 0.02% BSA, 0.2% acetic acid
Protocol: as §1, §3

[4] = system: clinical strains of P. aeruginosa; assay: MIC, microdilution, clinical strains; type: cell-based; settings: 0.02% BSA, 0.2% acetic acid
Protocol: as §1, §3

[5] = system: clinical strains of Proteus mirabilis; assay: MIC, microdilution, clinical strains; type: cell-based; settings: 0.02% BSA, 0.2% acetic acid
Protocol: as §1, §3

[6] = system: clinical strains of S. aureus; assay: MIC, microdilution, clinical strains; type: cell-based; settings: 0.02% BSA, 0.2% acetic acid
Protocol: as §1, §3

[7] = system: clinical strains of S. pneumoniae; assay: MIC, microdilution, clinical strains; type: cell-based; settings: 0.02% BSA, 0.2% acetic acid
Protocol: as §1, §3

[8] = system: clinical strains of Serratia marcescens; assay: MIC, microdilution, clinical strains; type: cell-based; settings: 0.02% BSA, 0.2% acetic acid
Protocol: as §1, §3

C. glabrata = assay: MIC, clinical yeast strains; type: cell-based
Protocol: as §1, §3

C. parapsilosis = assay: MIC, clinical yeast strains; type: cell-based
Protocol: as §1, §3

Candida albicans = assay: MIC, clinical yeast strains; type: cell-based
Protocol: as §1, §3

C. quillermondiae = assay: MIC, clinical yeast strains; type: cell-based; parameters: Minimum inhibitory concentration: unit: μg/ml; settings: C. quillermondiae clinical yeast strain 1
Protocol: as §1, §3

## CC[C@@H](C)[C@@H](NC(=O)[C@@H](CCSC)NC(=O)[C@@H](C)NC(=O)[C@@H](CCCNC(=N)N)NC(=O)[C@@H](Cc1c[nH]c2ccccc12)NC(=O)[C@@H](CCCCN)NC(=O)[C@H](N)CCCNC(=N)N)C(=O)N[C@H](CCCNC(=N)N)C(=O)N[C@H](CC(C)C)C(=O)N[C@H](Cc1c[nH]cn1)C(=O)N[C@H](C)C(=O)N[C@H](CCCCN)C(=O)N[C@H](CCCNC(=N)N)C(=O)N[C@H](CC(C)C)C(=O)N[C@H](CCCNC(=N)N)C(=O)N[C@H](CCCCN)C(=O)O [104 D] (H-[dR][dK][dW][dR][dA][dM][dI][dR][dL][dH][dA][dK][dR][dL][dR][dK]-OH)
S. aureus RN4220
  Minimum inhibitory concentration (MICs), S. aureus RN4220: 64 µg/mL
MRSA strains
  Minimum inhibitory concentration (MICs), S. aureus COL + 4 μg/ml Ertapenem: 4 µg/mL

## CC[C@@H](C)[C@@H](NC(=O)[C@@H](CCSC)NC(=O)[C@@H](C)NC(=O)[C@@H](CCCNC(=N)N)NC(=O)[C@@H](Cc1c[nH]c2ccccc12)NC(=O)[C@@H](CCCCN)NC(=O)[C@H](N)CCCNC(=N)N)C(=O)N[C@H](CCCNC(=N)N)C(=O)N[C@H](CC(C)C)C(=O)N[C@H](Cc1c[nH]cn1)C(=O)N[C@H](C)C(=O)N[C@H](CCCCN)C(=O)N[C@H](Cc1c[nH]c2ccccc12)C(=O)N[C@H](CC(C)C)C(=O)N[C@H](CCCNC(=N)N)C(=O)N[C@H](CCCCN)C(=O)O [105 D] (H-[dR][dK][dW][dR][dA][dM][dI][dR][dL][dH][dA][dK][dW][dL][dR][dK]-OH)
S. aureus RN4220
  Minimum inhibitory concentration (MICs), S. aureus RN4220: 16 µg/mL
MRSA strains
  Minimum inhibitory concentration (MICs), S. aureus COL + 4 μg/ml Ertapenem: 2 µg/mL

## CC[C@@H](C)[C@@H](NC(=O)[C@@H](Cc1c[nH]c2ccccc12)NC(=O)[C@H](N)CCCCN)C(=O)N[C@@H](C(=O)N[C@H](Cc1c[nH]c2ccccc12)C(=O)N[C@H](CCCNC(=N)N)C(=O)N[C@H](Cc1c[nH]c2ccccc12)C(=O)N[C@H](CCCNC(=N)N)C(=O)N[C@H](Cc1ccccc1)C(=O)N[C@H](CCCCN)C(=O)N[C@H](CCCNC(=N)N)C(=O)O)C(C)C [201 D] (H-[dK][dW][dI][dV][dW][dR][dW][dR][dF][dK][dR]-OH)
S. aureus RN4220
  Minimum inhibitory concentration (MICs), S. aureus RN4220: 2 µg/mL
MRSA strains
  Minimum inhibitory concentration (MICs), S. aureus COL + 4 μg/ml Ertapenem: 1 µg/mL

## CC(C)C[C@@H](NC(=O)[C@H](N)CCCCN)C(=O)N[C@H](CCCCN)C(=O)N[C@H](Cc1c[nH]c2ccccc12)C(=O)N[C@H](Cc1ccccc1)C(=O)N[C@H](Cc1c[nH]c2ccccc12)C(=O)N[C@H](CC(C)C)C(=O)N[C@H](Cc1ccccc1)C(=O)N[C@H](CCCCN)C(=O)N[C@H](CCCCN)C(=O)N[C@H](CCCNC(=N)N)C(=O)O [Chain311D] (H-[dK][dL][dK][dW][dF][dW][dL][dF][dK][dK][dR]-OH)
[1]; Enterobacter cloacae strain 1, Muller Hinton broth-cation adjusted
  Minimum inhibitory concentration: 4
[1]; Enterobacter cloacae strain 2, Muller Hinton broth-cation adjusted
  Minimum inhibitory concentration: 4
[1]; Enterobacter cloacae strain 3, Muller Hinton broth-cation adjusted
  Minimum inhibitory concentration: 4
[1]; Enterobacter cloacae strain 4, Muller Hinton broth-cation adjusted
  Minimum inhibitory concentration: 4
[1]; Enterobacter cloacae strain 5, Muller Hinton broth-cation adjusted
  Minimum inhibitory concentration: 2
[2]; Escherichia coli strain 1
  Minimum inhibitory concentration: 2
[2]; Escherichia coli strain 2
  Minimum inhibitory concentration: 2
[2]; Escherichia coli strain 3
  Minimum inhibitory concentration: 1
[2]; Escherichia coli strain 4
  Minimum inhibitory concentration: 0.5
[2]; Escherichia coli strain 5
  Minimum inhibitory concentration: 1
[3]; Klebsiella pneumoniae strain 1, Muller Hinton broth-cation adjusted
  Minimum inhibitory concentration: 8
[3]; Klebsiella pneumoniae strain 2, Muller Hinton broth-cation adjusted
  Minimum inhibitory concentration: 8
[3]; Klebsiella pneumoniae strain 3, Muller Hinton broth-cation adjusted
  Minimum inhibitory concentration: 4
[3]; Klebsiella pneumoniae strain 4, Muller Hinton broth-cation adjusted
  Minimum inhibitory concentration: 8
[3]; Klebsiella pneumoniae strain 5, Muller Hinton broth-cation adjusted
  Minimum inhibitory concentration: 4
[4]; Pseudomonas aeruginosa strain 1, Muller Hinton broth-cation adjusted
  Minimum inhibitory concentration: 16
[4]; Pseudomonas aeruginosa strain 2, Muller Hinton broth-cation adjusted
  Minimum inhibitory concentration: 8
[4]; Pseudomonas aeruginosa strain 3, Muller Hinton broth-cation adjusted
  Minimum inhibitory concentration: 16
[4]; Pseudomonas aeruginosa strain 4, Muller Hinton broth-cation adjusted
  Minimum inhibitory concentration: 8
[4]; Pseudomonas aeruginosa strain 5, Muller Hinton broth-cation adjusted
  Minimum inhibitory concentration: 4
[5]; Proteus mirabilis strain 1, Muller Hinton broth-cation adjusted
  Minimum inhibitory concentration: >128
[5]; Proteus mirabilis strain 2, Muller Hinton broth-cation adjusted
  Minimum inhibitory concentration: 128
[5]; Proteus mirabilis strain 3, Muller Hinton broth-cation adjusted
  Minimum inhibitory concentration: 128
[5]; Proteus mirabilis strain 4, Muller Hinton broth-cation adjusted
  Minimum inhibitory concentration: >128
[5]; Proteus mirabilis strain 5, Muller Hinton broth-cation adjusted
  Minimum inhibitory concentration: >128
[6]; Staphylococcus aureus strain 1, Muller Hinton broth-cation adjusted
  Minimum inhibitory concentration: 1
[6]; Staphylococcus aureus strain 2, Muller Hinton broth-cation adjusted
  Minimum inhibitory concentration: 1
[6]; Staphylococcus aureus strain 3, Muller Hinton broth-cation adjusted
  Minimum inhibitory concentration: 1
[6]; Staphylococcus aureus strain 4, Muller Hinton broth-cation adjusted
  Minimum inhibitory concentration: 1
[6]; Staphylococcus aureus strain 5, Muller Hinton broth-cation adjusted
  Minimum inhibitory concentration: 1
[7]; Streptococcus pneumoniae strain 1, Muller Hinton broth-cation adjusted
  Minimum inhibitory concentration: 16
[7]; Streptococcus pneumoniae strain 2, Muller Hinton broth-cation adjusted
  Minimum inhibitory concentration: 8
[7]; Streptococcus pneumoniae strain 3, Muller Hinton broth-cation adjusted
  Minimum inhibitory concentration: 16
[7]; Streptococcus pneumoniae strain 4, Muller Hinton broth-cation adjusted
  Minimum inhibitory concentration: 4
[7]; Streptococcus pneumoniae strain 5, Muller Hinton broth-cation adjusted
  Minimum inhibitory concentration: 8
[8]; Serratia marcescens strain 1, Muller Hinton broth-cation adjusted
  Minimum inhibitory concentration: >128
[8]; Serratia marcescens strain 2, Muller Hinton broth-cation adjusted
  Minimum inhibitory concentration: >128
[8]; Serratia marcescens strain 3, Muller Hinton broth-cation adjusted
  Minimum inhibitory concentration: >128
[8]; Serratia marcescens strain 4, Muller Hinton broth-cation adjusted
  Minimum inhibitory concentration: >128
[8]; Serratia marcescens strain 5, Muller Hinton broth-cation adjusted
  Minimum inhibitory concentration: >128
C. glabrata; C. glabrata clinical yeast strain 1
  Minimum inhibitory concentration: 16
C. glabrata; C. glabrata clinical yeast strain 2
  Minimum inhibitory concentration: 16
C. glabrata; C. glabrata clinical yeast strain 3
  Minimum inhibitory concentration: 8
C. glabrata; C. glabrata clinical yeast strain 4
  Minimum inhibitory concentration: 64
C. parapsilosis; C. parapsilosis clinical yeast strain 1
  Minimum inhibitory concentration: 16
C. parapsilosis; C. parapsilosis clinical yeast strain 2
  Minimum inhibitory concentration: 8
C. parapsilosis; C. parapsilosis clinical yeast strain 3
  Minimum inhibitory concentration: 8
C. parapsilosis; C. parapsilosis clinical yeast strain 4
  Minimum inhibitory concentration: 8
Candida albicans; Candida albicans clinical yeast strain 1
  Minimum inhibitory concentration: 8
Candida albicans; Candida albicans clinical yeast strain 2
  Minimum inhibitory concentration: 8
Candida albicans; Candida albicans clinical yeast strain 3
  Minimum inhibitory concentration: 8
Candida albicans; Candida albicans clinical yeast strain 4
  Minimum inhibitory concentration: 16
Candida albicans; Candida albicans clinical yeast strain 5
  Minimum inhibitory concentration: 16
C. quillermondiae
  Minimum inhibitory concentration: 4
